According to patent US20230068990A1, “PLATELET STORAGE METHODS AND COMPOSITIONS” (Platefuse, Inc., priority 2020, published 2023):

Legend:
[1] = system: cold-stored human platelets; assay: Human platelet recovery after xenotransfusion of cold-stored human platelets into NSG mice; assay type: in vivo, human platelets in NOD/SCID/gc-/- (NSG) mice; details: 10 μM in PAS-3M, cold storage 1-6° C. for 7 or 14 days, followed 24 hours post-transfusion
Procedure: To assess (S)G04 and (R)G04 prevention of platelet activation in vivo, xenotransfusion was performed of long-term (day 7, FIG. 3 and day 14, FIG. 4) stored solutions by taking an aliquot (equivalent to 1×10^6 platelets) of CFSE-labeled cold-stored human platelets (Acrodose, pooled platelets from four ABO identical donors) that were transfused to conditioned NOD/SCID/gc−/− (NSG) mice and followed for 24 hours post-transfusion.
Four storage conditions were tested. In all storage conditions, the vehicle was the platelet additive solution PAS-3M (Grifols, Barcelona, Spain). The storage conditions varied as follows (1) room temperature storage in vehicle only (RT-Vehicle), (2) cold storage (1-6° C., average ˜2° C.) in vehicle only (Cold-Vehicle), (3) cold storage in vehicle with 10 μM (S)G04 (Cold-G04-S), (4) cold storage in vehicle with 75 μM (R)G04 (Cold-G04-R).
Data is presented as an average of a triplicate analysis. […] Data is presented as an average of a triplicate analysis.

[2] = system: congenic murine platelets; assay: In vivo clot formation: tail bleeding time of aspirinated mice after platelet transfusion; details: 10 μM, murine platelets stored cold (1-6° C.) 4 hours, 24 hours post-administration of platelets
Procedure: Next, the influence of G04 ((S)G04 and (R)G04) on in vivo clot formation was examined. Congenic murine platelets were stored in cold (1-6° C.) for 4 hours and then administered to mice 24 hours after administration of aspirin. Bleeding time was measured for aspirinated mice receiving no platelets, vehicle-only platelets stored at room temperature, vehicle-only cold-stored platelets, vehicle+(R)G04 (75 μM) cold-stored platelets, and vehicle+(S)G04 (10 μM) cold-stored platelets. The results were compared to control non-aspirinated mice (Basal).

[3] = Pharmacokinetic study of (S)G04 in mice, serum UPLC-MS/MS; assay type: in vivo; details: IV injection of 10 and 50 μM in PAS buffer
Procedure: Standard (S)G04 was diluted from DMSO stock (50 mM) with PAS buffer into 10 and 50 μM, administered to mice via IV injection, and serum samples were collected at time points 1, 3, 10, 30 min, and stored at −80° C. before analysis. PK samples from mice serum (retro orbital bleed) were usually 20-100 μL.
A calibration curve in the range of 0-1 μM, i.e. 0, 0.01, 0.05, 0.1, 0.5, 1 μM, was prepared by spiking standard solution ([…] (S)G04 in PAS buffer) into blank mouse serum and then conducting serial dilution accordingly.
QC samples were prepared in the same way with final concentration of 0.05 and 0.5 μM.
Samples were prepared by carrying out the following steps. Add 20 μL of mouse serum (PK samples, calibrators and QCs), and 20 μL of internal standard in methanol, vortex for 30 secs. Add 100 μL of ice cold MeOH then vortex for 1 min. Let sit for 5 minutes before submitting to centrifuge for 10 minutes at 21,100×g (RCF) at 4° C. Take 100 μL of the supernatant and transfer to autosampler vial (max recovery, Waters). Put a cap on the vial, and load vials onto UPLC-MS autosampler for analysis. Because organic solvent evaporates relatively quickly at room temperature, samples in organic solvents should not be left at room temperature longer than 6 hr before injection. Set up the UPLC-MS/MS system: cleaning cone, in accordance with the manufacturer's Operation SOP/documents. […]

[4] = system: washed human platelet suspension; assay: Inhibition of collagen-induced platelet aggregation (aggregometer); assay type: cell-based; details: washed human platelets, 2 min preincubation, collagen 4 μg/ml, read-out 6 min after induction
Procedure: Platelet shape change in washed platelets was monitored using an aggregometer and the decrease in light transmittance following addition of an agonist (Huzoor et al., 1993). For the purpose of this analysis, collagen was used as the agonist. Briefly, a washed human platelet suspension was incubated at 37° C. in a Lumi-Aggregometer (Chrono-Log Corporation) with stirring at 900 rpm, followed by the addition of dimethylsulfoxide (DMSO) as a control vehicle, or DMSO containing (S)G04 or (R)G04 (FIG. 1A). (S)G04 and (R)G04 were tested at concentrations of 1, 5, 10, 30 and 50 μM.
After incubating the samples with the respective compound for 2 minutes, platelet aggregation was induced by adding collagen ([…]) and the relative aggregation value was read out at 6 min after the induction. A dose response for each compound was derived.
In these experiments, a collagen concentration of 4 μg/ml was used. The IC50 values calculated for (R)G04 and (S)G04 are 40 μM and 4 μM, respectively.

Q: Which results are given for `N[C@@H](Cc1c[nH]c2ccccc12)C(=O)N/N=C/c1ccc2nccnc2c1` [(S)G04]?
A: survival of cold-stored platelets (recovery and AUC) after xenotransfusion [1]: completely prevented the decreased survival; bleeding time of aspirinated mice [2]: completely corrected the bleeding time; reduction of the injection concentration in 1 minute [3]: > 100 ×; IC50 [4]: 4 µM
